Source: PubChem BioAssay AID1259407 (Chemical Carcinogenesis Research Information System (CCRIS), 2018)
The source made the active and inactive calls. No rule for the calls is given here.

Tested on: CCRIS mutagenicity, Ames/micronucleus/aberration tests
Experiment: CCRIS mutagenicity studies
[1] = Test System: AMES SALMONELLA TYPHIMURIUM, Strain/Indicator: TA100, Metabolic Activation: NONE, Method: STANDARD PLATE
[2] = Test System: AMES SALMONELLA TYPHIMURIUM, Strain/Indicator: TA97, Metabolic Activation: HAMSTER, LIVER, S-9, AROCLOR 1254 (10 OR 30%), Method: PREINCUBATION
[3] = Test System: AMES SALMONELLA TYPHIMURIUM, Strain/Indicator: TA97, Metabolic Activation: NONE, Method: PREINCUBATION
[4] = Test System: AMES SALMONELLA TYPHIMURIUM, Strain/Indicator: TA97, Metabolic Activation: RAT, LIVER, S-9, AROCLOR 1254 (10 OR 30%), Method: PREINCUBATION
[5] = Test System: AMES SALMONELLA TYPHIMURIUM, Strain/Indicator: TA98, Metabolic Activation: HAMSTER, LIVER, S-9, AROCLOR 1254 (10 OR 30%), Method: PREINCUBATION
[6] = Test System: AMES SALMONELLA TYPHIMURIUM, Strain/Indicator: TA98, Metabolic Activation: NONE, Method: PREINCUBATION
[7] = Test System: AMES SALMONELLA TYPHIMURIUM, Strain/Indicator: TA98, Metabolic Activation: RAT, LIVER, S-9, AROCLOR 1254 (10 OR 30%), Method: PREINCUBATION
[8] = Test System: AMES SALMONELLA TYPHIMURIUM, Strain/Indicator: TA100, Metabolic Activation: HAMSTER, LIVER, S-9, AROCLOR 1254 (10 OR 30%), Method: PREINCUBATION
[9] = Test System: AMES SALMONELLA TYPHIMURIUM, Strain/Indicator: TA100, Metabolic Activation: NONE, Method: PREINCUBATION
[10] = Test System: AMES SALMONELLA TYPHIMURIUM, Strain/Indicator: TA100, Metabolic Activation: RAT, LIVER, S-9, AROCLOR 1254 (10 OR 30%), Method: PREINCUBATION
[11] = Test System: AMES SALMONELLA TYPHIMURIUM, Strain/Indicator: TA1535, Metabolic Activation: HAMSTER, LIVER, S-9, AROCLOR 1254 (10 OR 30%), Method: PREINCUBATION
[12] = Test System: AMES SALMONELLA TYPHIMURIUM, Strain/Indicator: TA1535, Metabolic Activation: NONE, Method: PREINCUBATION
[13] = Test System: AMES SALMONELLA TYPHIMURIUM, Strain/Indicator: TA1535, Metabolic Activation: RAT, LIVER, S-9, AROCLOR 1254 (10 OR 30%), Method: PREINCUBATION
[14] = Test System: AMES SALMONELLA TYPHIMURIUM, Strain/Indicator: TA98, Metabolic Activation: NONE, Method: STANDARD PLATE
[15] = Test System: AMES SALMONELLA TYPHIMURIUM, Strain/Indicator: TA1535, Metabolic Activation: NONE, Method: STANDARD PLATE
[16] = Test System: AMES SALMONELLA TYPHIMURIUM, Strain/Indicator: TA1537, Metabolic Activation: NONE, Method: STANDARD PLATE

P
mutagenic call (Test System: AMES SALMONELLA TYPHIMURIUM, Strain/Indicator: TA98, Metabolic Activation: NONE, Method: GAS EXPOSURE): inactive; negative
mutagenic call (Test System: AMES SALMONELLA TYPHIMURIUM, Strain/Indicator: TA98, Metabolic Activation: RAT LIVER S-9, PHENOBARBITAL AND BETA-NAPHTHOFLAVONE, Method: GAS EXPOSURE): inactive; negative
mutagenic call (Test System: AMES SALMONELLA TYPHIMURIUM, Strain/Indicator: TA100, Metabolic Activation: NONE, Method: GAS EXPOSURE): inactive; negative
mutagenic call (Test System: AMES SALMONELLA TYPHIMURIUM, Strain/Indicator: TA100, Metabolic Activation: RAT LIVER S-9, PHENOBARBITAL AND BETA-NAPHTHOFLAVONE, Method: GAS EXPOSURE): inactive; negative
mutagenic call (Test System: AMES SALMONELLA TYPHIMURIUM, Strain/Indicator: TA1535, Metabolic Activation: NONE, Method: GAS EXPOSURE): inactive; negative
mutagenic call (Test System: AMES SALMONELLA TYPHIMURIUM, Strain/Indicator: TA1535, Metabolic Activation: RAT LIVER S-9, PHENOBARBITAL AND BETA-NAPHTHOFLAVONE, Method: GAS EXPOSURE): inactive; negative
mutagenic call (Test System: AMES SALMONELLA TYPHIMURIUM, Strain/Indicator: TA1537, Metabolic Activation: NONE, Method: GAS EXPOSURE): inactive; negative
mutagenic call (Test System: AMES SALMONELLA TYPHIMURIUM, Strain/Indicator: TA1537, Metabolic Activation: RAT LIVER S-9, PHENOBARBITAL AND BETA-NAPHTHOFLAVONE, Method: GAS EXPOSURE): inactive; negative
mutagenic call (Test System: E.COLI, Strain/Indicator: WP2UVRA, Metabolic Activation: NONE, Method: GAS EXPOSURE): inactive; negative
mutagenic call (Test System: E.COLI, Strain/Indicator: WP2UVRA, Metabolic Activation: RAT LIVER S-9, PHENOBARBITAL AND BETA-NAPHTHOFLAVONE, Method: GAS EXPOSURE): inactive; negative

c1ccc(COC[C@H]2CO2)cc1
mutagenic call [1]: active; positive

O=C(Cn1ccnc1[N+](=O)[O-])NCc1ccccc1
mutagenic call [1]: active; positive
mutagenic call (Test System: AMES SALMONELLA TYPHIMURIUM, Strain/Indicator: TA100, Metabolic Activation: RAT, LIVER, S-9, AROCLOR 1254, Method: STANDARD PLATE): active; positive

[O]=[Cr][O][Cr]=[O]
mutagenic call (Test System: CHINESE HAMSTER V-79, Strain/Indicator: V-79/6-THIOGUANINE, Metabolic Activation: NONE): active; positive

Clc1ccc(C(c2ccc(Cl)cc2)C(Cl)(Cl)Cl)cc1
mutagenic call [2]: inactive; negative
mutagenic call [3]: inactive; negative
mutagenic call [4]: inactive; negative
mutagenic call [5]: inactive; negative
mutagenic call [6]: inactive; negative
mutagenic call [7]: inactive; negative
mutagenic call [8]: inactive; negative
mutagenic call [9]: inactive; negative
mutagenic call [10]: inactive; negative
mutagenic call [11]: inactive; negative
mutagenic call [12]: inactive; negative
mutagenic call [13]: inactive; negative
mutagenic call (Test System: AMES SALMONELLA TYPHIMURIUM, Strain/Indicator: TA1537, Metabolic Activation: HAMSTER, LIVER, S-9, AROCLOR 1254 (30%), Method: PREINCUBATION): inactive; negative
mutagenic call (Test System: AMES SALMONELLA TYPHIMURIUM, Strain/Indicator: TA1537, Metabolic Activation: NONE, Method: PREINCUBATION): inactive; negative
mutagenic call (Test System: AMES SALMONELLA TYPHIMURIUM, Strain/Indicator: TA1537, Metabolic Activation: RAT, LIVER, S-9, AROCLOR 1254 (30%), Method: PREINCUBATION): inactive; negative
mutagenic call (Test System: CHINESE HAMSTER V-79, Strain/Indicator: V-79/8-AZAGUANINE, Metabolic Activation: NONE, Method: STANDARD PLATE): active; positive

CCCCCCN=[N+]=[N-]
mutagenic call (Test System: Ames Salmonella typhimurium, Strain/Indicator: TA100, Metabolic Activation: None, Method: Preincubation): inactive; negative
mutagenic call (Test System: Ames Salmonella typhimurium, Strain/Indicator: TA100, Metabolic Activation: Rat, Liver, S-9, Aroclor 1254, Method: Preincubation): active; positive

C=C(C)[C@@]12OC3(c4ccccc4)O[C@@H]1[C@@H]1[C@@H]4OC4(CO)[C@@H](O)[C@]4(O)C(=O)C(C)=C[C@H]4[C@@]1(O3)[C@H](C)[C@H]2OC(=O)/C=C/C=C/c1ccccc1 (some centres not stated)
mutagenic call [2]: inactive; negative
mutagenic call [3]: inactive; negative
mutagenic call [4]: inactive; negative
mutagenic call [5]: inactive; negative
mutagenic call [6]: inactive; negative
mutagenic call [7]: inactive; negative
mutagenic call [8]: inactive; negative
mutagenic call [9]: inactive; negative
mutagenic call [10]: inactive; negative
mutagenic call [11]: inactive; negative
mutagenic call [12]: inactive; negative
mutagenic call [13]: inactive; negative

c1ccc2c(c1)cc1c3cccc4cccc(c5cccc2c51)c43
mutagenic call (Test System: HUMAN H1A1V2 CELLS, Strain/Indicator: TK LOCUS, Metabolic Activation: NONE, Method: SUSPENSION/PLATE): active; positive

O=[N+]([O-])c1c(-c2ccc(Cl)cc2)nc2sccn12
mutagenic call [14]: active; positive
mutagenic call [1]: inactive; negative
mutagenic call [15]: inactive; negative
mutagenic call [16]: active; positive
mutagenic call (Test System: AMES SALMONELLA TYPHIMURIUM, Strain/Indicator: TA1538, Metabolic Activation: NONE, Method: STANDARD PLATE): active; positive

O=C(CCl)Nc1snc2ccccc12
mutagenic call [14]: inactive; negative
mutagenic call (Test System: AMES SALMONELLA TYPHIMURIUM, Strain/Indicator: TA98, Metabolic Activation: S-9, Method: STANDARD PLATE): active; positive
mutagenic call [1]: inactive; negative
mutagenic call (Test System: AMES SALMONELLA TYPHIMURIUM, Strain/Indicator: TA100, Metabolic Activation: S-9, Method: STANDARD PLATE): active; positive
mutagenic call [15]: inactive; negative
mutagenic call (Test System: AMES SALMONELLA TYPHIMURIUM, Strain/Indicator: TA1535, Metabolic Activation: S-9, Method: STANDARD PLATE): inactive; negative
mutagenic call [16]: active; positive
mutagenic call (Test System: AMES SALMONELLA TYPHIMURIUM, Strain/Indicator: TA1537, Metabolic Activation: S-9, Method: STANDARD PLATE): active; positive

CO[C@@H]1[C@H](O)C[C@@H](O[C@@H]2C[C@H](Oc3cc4cc5c(c(O)c4c(O)c3C)C(=O)[C@@H](O[C@H]3C[C@@H](O[C@H]4C[C@@H](O[C@H]6C[C@](C)(O)[C@@H](OC(C)=O)[C@H](C)O6)[C@H](O)[C@@H](C)O4)[C@H](O)[C@@H](C)O3)[C@H]([C@H](OC)C(=O)[C@@H](O)[C@@H](C)O)C5)O[C@H](C)[C@@H]2OC(C)=O)O[C@@H]1C
mutagenic call [14]: inactive; negative
mutagenic call [1]: inactive; negative
mutagenic call (Test System: CHINESE HAMSTER OVARY, Strain/Indicator: CHO (HGPRT)/6-THIOGUANINE, Metabolic Activation: NONE, Method: PREINCUBATION): active; positive
mutagenic call (Test System: E. COLI, Strain/Indicator: WP2 (HCR), Metabolic Activation: NONE, Method: STANDARD PLATE): inactive; negative
